According to patent publication US11497833B2, “Self-assembling peptides comprising non-Ionic polar amino acids” (3-D Matrix, Ltd., priority 2014, dated 2022):
Peptide text beside a SMILES is read from it.

How the values were obtained:
Type in all cases: physicochemical
[1] = Atomic Force Microscopy (AFM) morphological study of peptide nano structures; settings: 100 μM peptide solution on mica, rinsed, air-dried, tapping mode
Procedure: Each sample was left on the mica for about 30 seconds (s) and then rinsed with aliquots of 100 μl of Milli-Q (ultrapure) water to remove unattached peptides. The sample on the mica surface was then air-dried for AFM observation. AFM was performed with Asylum-1 MFP-3D AFM System (Asylum Research, Santa Barbara, Calif.) using a tapping mode. The images utilized an Olympus Si tip (AC240FS). The cantilever's free resonance frequency was 70 kHz.

[2] = Stability to autoclave sterilization, mass spectrometry before and after autoclave; settings: 121° C. for 25 min, high pressure saturated steam; mass spec before and after; N- and C-terminus not protected
Excerpt: Sterilization is a very important step in the manufacturing process for all biomaterials, including the self-assembling peptide solutions.

[3] = Dissolution in deionized water and visual appearance of peptide solution; settings: deionized water
[4] = Congo Red assay of gel formation in PBS buffer (pH 7.4); settings: 1% Congo Red in PBS buffer pH 7.4
Procedure: A Congo Red assay was performed to determine gel formation of peptide solutions in a PBS buffer solution (pH 7.4). 100 μl of each gel at varying concentrations were plated on a glass slide. After 30 seconds, 500 μl of a 1% Congo Red solution in PBS buffer (pH 7.4) was added around and on top of each of the gel aliquots and then the excess Congo Red solution was wiped off prior to examination.
Visualization of gel formation determined the success or failure of gelation at each concentration.

[5] = Rheological properties at various concentrations (rheometer, stress sweep); settings: 37° C., 10 rad/s; for Loss Modulus (G')* / Storage Modulus (G')*: at 1 Pa of oscillation stress
Procedure: The rheological properties of the ST14 (SEQ ID NO:2) were evaluated at various concentrations using a rheometer (AR500, TA Instruments) with 40 mm plates. Peptide solution (700μL) was placed on the rheometer plate and excess solution was gently removed by Kimwipes; measurements were performed after 2 minutes of relaxation time at 37° C. The storage modulus, loss modulus, and viscosity (η′) were measured at 37° C. with the plates placed at a measuring geometry gap of 300 μm, and stress sweep tests were performed at 0.1 Pa˜1000 Pa of oscillation stress with angular frequency at 10 rad/s.

SMILES	AFM morphology (nano structure) [1]	degradation during autoclave treatment [2]	appearance in solution ([3]; 1 percent w/v to 5 percent w/v)	solution consistency ([3]; 5 percent w/v)	gel formation ([4]; below 1% peptide)	solution consistency ([3]; 1 percent w/v to 5 percent w/v)	gel formation ([4]; 0.5% peptide)	Max. Viscosity (max η') ([5]; Concentration 1) [Pa-s]	Loss Modulus (G')* ([5]; Concentration 1) [Pa]	Storage Modulus (G')* ([5]; Concentration 1) [Pa]	Max. Viscosity (max η') ([5]; Concentration 1.5) [Pa-s]	Loss Modulus (G')* ([5]; Concentration 1.5) [Pa]	Storage Modulus (G')* ([5]; Concentration 1.5) [Pa]	Max. Viscosity (max η') ([5]; Concentration 2) [Pa-s]	Loss Modulus (G')* ([5]; Concentration 2) [Pa]	Storage Modulus (G')* ([5]; Concentration 2) [Pa]	Max. Viscosity (max η') ([5]; Concentration 2.5) [Pa-s]	Loss Modulus (G')* ([5]; Concentration 2.5) [Pa]	Storage Modulus (G')* ([5]; Concentration 2.5) [Pa]
CC(O)C(N)C(=O)NC(C(=O)NC(C(=O)NC(C(=O)NC(C(=O)NC(C(=O)NC(C(=O)NC(C(=O)NC(C(=O)NC(C(=O)NC(C(=O)NC(C(=O)NC(C(=O)NC(C(=O)O)C(C)O)C(C)O)C(C)O)C(C)O)C(C)O)C(C)O)C(C)O)C(C)O)C(C)O)C(C)O)C(C)O)C(C)O)C(C)O (stereo not drawn) [Peptide T14, TTTTTTTTTTTTTT]	Aggregates	did not degrade	translucent	formed a thick solution	did not form a gel														
CC(O)C(NC(=O)C(CO)NC(=O)C(NC(=O)C(CO)NC(=O)C(NC(=O)C(CO)NC(=O)C(NC(=O)C(CO)NC(=O)C(NC(=O)C(CO)NC(=O)C(NC(=O)C(CO)NC(=O)C(NC(=O)C(N)CO)C(C)O)C(C)O)C(C)O)C(C)O)C(C)O)C(C)O)C(=O)O (stereo not drawn) [ST14, STSTSTSTSTSTST] (H-STSTSTSTSTSTST-OH; configuration not given here)		did not degrade	translucent			formed thick solutions	did not form a gel	1.2	11.4	67	1.5	9.8	94	2.0	17.3	136	2.2	17.1	167
